Patent US10202370B2, “Benzimidazole derivatives as selective proteine kinase inhibitors” (AB SCIENCE, priority 2013, dated 2019)

Target: c-kit WT (Homo sapiens (Human), UniProt P10721)
Assay: Proliferation assay (CellTiter-Blue) on BaF3 Kit WT cell line
Format: cell-based
Settings: BaF3 Kit WT cell line (murine Ba/F3 expressing Human Kit WT, with murine SCF), 48 hours
Method: Procedures of C-Kit WT Inhibition Assays:
Colorimetric cell proliferation and viability assay (reagent CellTiter-Blue purchased from Promega cat N°G8081) was performed on BaF3 Kit WT cell line.
A total of 2.10^4 cells/50 μl were seeded per well of a 96-wells plate. Treatment was initiated by addition of a 2× drug solution of ½ serial dilutions ranging from 0 to 10 μM. After incubating for 48 hours at 37° C., 10 μl of a ½ dilution of CellTiter-Blue reagent was added to each well and the plates were returned to the incubator for an additional 4 hours. The fluorescence intensity from the CellTiter-Blue reagent is proportional to the number of viable cells and data were recorded (544Ex/590Em) using a POLARstar OMEGA microplate reader (BMG LabteckSarl). A background control without cells was used as a blank. The positive control of the assay corresponds to the cell proliferation obtained in the absence of drug treatment (100% proliferation). Each sample was done in triplicate. The results were expressed as a percentage of the proliferation obtained in absence of treatment. All drugs were prepared as 20 mM stock solutions in DMSO and conserved at −80° C. Drug dilutions were made fresh in medium before each experiment. A DMSO control was included in each experiment.
The cell line expressing Human Kit WT was derived from the murine IL3-dependent Ba/F3 proB lymphoid cells. Ba/F3 Kit WT cells were maintained in RPMI medium containing 10% FCS and supplemented with 250 ng/ml of recombinant murine SCF.

Chain of c-kit WT (P10721 26-976): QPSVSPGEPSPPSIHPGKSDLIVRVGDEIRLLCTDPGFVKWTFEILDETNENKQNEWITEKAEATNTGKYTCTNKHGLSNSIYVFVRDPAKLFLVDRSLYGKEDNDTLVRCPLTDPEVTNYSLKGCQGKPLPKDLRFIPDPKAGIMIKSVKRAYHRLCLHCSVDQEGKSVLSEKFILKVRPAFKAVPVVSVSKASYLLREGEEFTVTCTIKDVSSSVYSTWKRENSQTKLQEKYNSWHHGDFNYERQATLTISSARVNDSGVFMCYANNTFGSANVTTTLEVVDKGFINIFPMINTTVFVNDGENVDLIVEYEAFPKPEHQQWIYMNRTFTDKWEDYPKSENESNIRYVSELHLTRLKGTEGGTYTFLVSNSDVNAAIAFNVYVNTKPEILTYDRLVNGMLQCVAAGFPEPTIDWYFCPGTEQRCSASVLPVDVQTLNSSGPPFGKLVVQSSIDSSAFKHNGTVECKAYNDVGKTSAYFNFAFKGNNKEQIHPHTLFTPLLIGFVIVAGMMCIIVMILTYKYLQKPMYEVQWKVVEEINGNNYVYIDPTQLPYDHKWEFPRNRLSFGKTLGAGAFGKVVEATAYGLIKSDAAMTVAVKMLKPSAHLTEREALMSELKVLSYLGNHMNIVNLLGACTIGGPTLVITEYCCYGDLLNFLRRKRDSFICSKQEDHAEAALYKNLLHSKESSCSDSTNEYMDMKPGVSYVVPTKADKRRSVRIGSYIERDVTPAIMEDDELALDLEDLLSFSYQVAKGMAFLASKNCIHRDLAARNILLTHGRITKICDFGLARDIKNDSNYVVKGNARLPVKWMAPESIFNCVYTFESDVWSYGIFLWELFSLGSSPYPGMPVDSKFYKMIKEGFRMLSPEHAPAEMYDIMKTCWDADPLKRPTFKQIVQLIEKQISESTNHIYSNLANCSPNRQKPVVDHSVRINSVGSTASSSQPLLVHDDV

IC50	SMILES
1000 to 10000 nM	Cc1cc2nc(-c3cccc(C(F)(F)F)c3)[nH]c2cc1Nc1ncc(-c2ccncc2)o1 [Compound 053, [6-Methyl-2-(3-trifluoromethyl-phenyl)-3H-benzoimidazol-5-yl]-(5-pyridin-4-yl-oxazol-2-yl)-amine]
1000 to 10000 nM	Cc1cc2nc(CN3CCOCC3)[nH]c2cc1Nc1nc(-c2cccnc2)cs1 [Compound 064, (6-Methyl-2-morpholin-4-ylmethyl-3H-benzoimidazol-5-yl)-(4-pyridin-3-yl-thiazol-2-yl)-amine]
1000 to 10000 nM	Cc1cccc(-c2nc3cc(C)c(Nc4nccc(-c5cccnc5)n4)cc3[nH]2)c1 [Compound 012, (6-Methyl-2-m-tolyl-3H-benzoimidazol-5-yl)-(4-pyridin-3-yl-pyrimidin-2-yl)-amine]
≤ 1000 nM	Cc1cc2c(cc1Nc1nc(-c3ccc(C#N)cc3)cs1)nc(-c1cccc(C(C)(C)C)c1)n2C [Compound 144, 4-{2-[2-(3-tert-Butyl-phenyl)-1,6-dimethyl-1H-benzoimidazol-5-ylamino]-thiazol-4-yl}-benzonitrile]
≤ 1000 nM	Cc1cccc(-c2nc3cc(C)c(Nc4nc(-c5ccc(C#N)cc5)cs4)cc3[nH]2)c1 [Compound 074, 4-[2-(6-Methyl-2-m-tolyl-3H-benzoimidazol-5-ylamino)-thiazol-4-yl]-benzonitrile]
≤ 1000 nM	Cc1cc2c(cc1Nc1nc(-c3ccncc3)cs1)nc(-c1cccc(C(F)(F)F)c1)n2C [Compound 082, [1,6-Dimethyl-2-(3-trifluoromethyl-phenyl)-1H-benzoimidazol-5-yl]-(4-pyridin-4-yl-thiazol-2-yl)-amine]
1000 to 10000 nM	Cc1cc2nc(-c3ccc(C(F)(F)F)cc3)[nH]c2cc1Nc1nc(-c2cccnc2)cs1 [Compound 021, [6-Methyl-2-(4-trifluoromethyl-phenyl)-3H-benzoimidazol-5-yl]-(4-pyridin-3-yl-thiazol-2-yl)-amine]
≤ 1000 nM	Cc1cccc(-c2nc3cc(Nc4nc(-c5ccc(C#N)cc5)cs4)c(C)cc3n2C)c1 [Compound 112, 4-[2-(1,6-Dimethyl-2-m-tolyl-1H-benzoimidazol-5-ylamino)-thiazol-4-yl]-benzonitrile]
1000 to 10000 nM	COc1ccc(-c2nc3cc(C)c(Nc4nc(-c5cccnc5)cs4)cc3[nH]2)cc1 [Compound 002, [2-(4-Methoxy-phenyl)-6-methyl-3H-benzoimidazol-5-yl]-(4-pyridin-3-yl-thiazol-2-yl)-amine]
≤ 1000 nM	Cc1cc2nc(-c3cccc(N(C)C)c3)[nH]c2cc1Nc1nc(-c2cccnc2)cs1 [Compound 132, [2-(3-Dimethylamino-phenyl)-6-methyl-3H-benzoimidazol-5-yl]-(4-pyridin-3-yl-thiazol-2-yl)-amine]
≤ 1000 nM	C#Cc1cccc(-c2nc3cc(Nc4nc(-c5cccnc5)cs4)c(C)cc3n2C)c1 [Compound 146, [2-(3-Ethynyl-phenyl)-1,6-dimethyl-1H-benzoimidazol-5-yl]-(4-pyridin-3-yl-thiazol-2-yl)-amine]
≤ 1000 nM	Cc1cc2nc(-c3cc(CN4CCOCC4)cc(C(F)(F)F)c3)[nH]c2cc1Nc1nc(-c2cccnc2)cs1 [Compound 020, [6-Methyl-2-(3-morpholin-4-ylmethyl-5-trifluoromethyl-phenyl)-3H-benzoimidazol-5-yl]-(4-pyridin-3-yl-thiazol-2-yl)-amine]
≤ 1000 nM	Cc1cc2nc(-c3cccc(OC(F)(F)F)c3)[nH]c2cc1Nc1nc(-c2ccc(C(N)=O)cc2)cs1 [Compound 073, 4-{2-[6-Methyl-2-(3-trifluoromethoxy-phenyl)-3H-benzoimidazol-5-ylamino]-thiazol-4-yl}-benzamide]
1000 to 10000 nM	Cc1cccc(-c2nc3cc(C)c(Nc4nc(-c5cccnc5)cs4)cc3n2C)c1 [Compound 118, (3,6-Dimethyl-2-m-tolyl-3H-benzoimidazol-5-yl)-(4-pyridin-3-yl-thiazol-2-yl)-amine]
1000 to 10000 nM	Cc1cc2nc(-c3cccc(S(C)(=O)=O)c3)[nH]c2cc1Nc1nccc(-c2cccnc2)n1 [Compound 038, [2-(3-Methanesulfonyl-phenyl)-6-methyl-3H-benzoimidazol-5-yl]-(4-pyridin-3-yl-pyrimidin-2-yl)-amine]
≤ 1000 nM	Cc1cc2nc(-c3cccc(Cl)c3)[nH]c2cc1Nc1nc(-c2cccnc2)cs1 [Compound 032, [2-(3-Chloro-phenyl)-6-methyl-3H-benzoimidazol-5-yl]-(4-pyridin-3-yl-thiazol-2-yl)-amine]
≤ 1000 nM	Cc1cccc(-c2nc3cc(Nc4nc(-c5ccncc5)cs4)c(C)cc3n2C(C)C)c1 [Compound 102, (1-Isopropyl-6-methyl-2-m-tolyl-1H-benzoimidazol-5-yl)-(4-pyridin-4-yl-thiazol-2-yl)-amine]

IC50	SMILES
≤ 1000 nM	Cc1cc2nc(-c3cc(CN4CCCC4)cc(C(F)(F)F)c3)[nH]c2cc1Nc1nccc(-c2cccnc2)n1 [Compound 029, [6-Methyl-2-(3-pyrrolidin-1-ylmethyl-5-trifluoromethyl-phenyl)-3H-benzoimidazol-5-yl]-(4-pyridin-3-yl-pyrimidin-2-yl)-amine]
≤ 1000 nM	Cc1cc2c(cc1Nc1nc(-c3ccncc3)cs1)nc(-c1cccc(C(C)C)c1)n2C [Compound 151, [2-(3-Isopropyl-phenyl)-1,6-dimethyl-1H-benzoimidazol-5-yl]-(4-pyridin-4-yl-thiazol-2-yl)-amine]
≤ 1000 nM	CCn1c(-c2cccc(OC(F)(F)F)c2)nc2cc(Nc3nc(-c4cccnc4)cs3)c(C)cc21 [Compound 115, [1-Ethyl-6-methyl-2-(3-trifluoromethoxy-phenyl)-1H-benzoimidazol-5-yl]-(4-pyridin-3-yl-thiazol-2-yl)-amine]
≤ 1000 nM	Cc1cc2nc(-c3ccc(CN4CCN(C)CC4)cc3)[nH]c2cc1Nc1nc(-c2cccnc2)cs1 [Compound 003, {6-Methyl-2-[4-(4-methyl-piperazin-1-ylmethyl)-phenyl]-3H-benzoimidazol-5-yl}-(4-pyridin-3-yl-thiazol-2-yl)-amine]
1000 to 10000 nM	Cc1cc2nc(-c3ccc(C(F)(F)F)cc3)[nH]c2cc1Nc1nc(-c2ccc(C#N)cc2)cs1 [Compound 076, 4-{2-[6-Methyl-2-(4-trifluoromethyl-phenyl)-3H-benzoimidazol-5-ylamino]-thiazol-4-yl}-benzonitrile]
≤ 1000 nM	CCn1c(-c2cccc(C)c2)nc2cc(Nc3nc(-c4ccncc4)cs3)c(C)cc21 [Compound 104, (1-Ethyl-6-methyl-2-m-tolyl-1H-benzoimidazol-5-yl)-(4-pyridin-4-yl-thiazol-2-yl)-amine]
≤ 1000 nM	Cc1cc2c(cc1Nc1nc(-c3cccnc3)cs1)nc(-c1cccc(C(C)C)c1)n2C [Compound 140, [2-(3-Isopropyl-phenyl)-1,6-dimethyl-1H-benzoimidazol-5-yl]-(4-pyridin-3-yl-thiazol-2-yl)-amine]
≤ 1000 nM	Cc1cc2nc(-c3cccc(C(F)F)c3)[nH]c2cc1Nc1nc(-c2ccc(C(N)=O)cc2)cs1 [Compound 071, 4-{2-[2-(3-Difluoromethyl-phenyl)-6-methyl-3H-benzoimidazol-5-ylamino]-thiazol-4-yl}-benzamide]
≤ 1000 nM	Cc1cc2[nH]c(-c3cccc(C(C)C)c3)nc2cc1Nc1nc(-c2ccc(C#N)cc2)cs1 [Compound 143, 4-{2-[2-(3-Isopropyl-phenyl)-6-methyl-1H-benzoimidazol-5-ylamino]-thiazol-4-yl}-benzonitrile]
≤ 1000 nM	Cc1ccc(-c2nc3cc(Nc4nc(-c5ccncc5)cs4)c(C)cc3[nH]2)s1 [Compound 079, [6-Methyl-2-(5-methyl-thiophen-2-yl)-1H-benzoimidazol-5-yl]-(4-pyridin-4-yl-thiazol-2-yl)-amine]
1000 to 10000 nM	Cc1cc2nc(-c3cccc(C(F)(F)F)c3)[nH]c2cc1Nc1ncc(-c2cccnc2)o1 [Compound 007, [6-Methyl-2-(3-trifluoromethyl-phenyl)-3H-benzoimidazol-5-yl]-(5-pyridin-3-yl-oxazol-2-yl)-amine]
≤ 1000 nM	Cc1cc2[nH]c(-c3ccc(C(F)F)cc3)nc2cc1Nc1nc(-c2cccnc2)cs1 [Compound 097, [2-(4-Difluoromethyl-phenyl)-6-methyl-1H-benzoimidazol-5-yl]-(4-pyridin-3-yl-thiazol-2-yl)-amine]
1000 to 10000 nM	Cc1ccc(-c2nc3cc(C)c(Nc4nc(-c5cccnc5)cs4)cc3[nH]2)cc1 [Compound 004, (6-Methyl-2-p-tolyl-3H-benzoimidazol-5-yl)-(4-pyridin-3-yl-thiazol-2-yl)-amine]
≤ 1000 nM	Cc1cc2nc(-c3cccc(C(F)F)c3)[nH]c2cc1Nc1nc(-c2ccncc2)cs1 [Compound 045, [2-(3-Difluoromethyl-phenyl)-6-methyl-3H-benzoimidazol-5-yl]-(4-pyridin-4-yl-thiazol-2-yl)-amine]
1000 to 10000 nM	Cc1cc2nc(-c3cccc(CN4CCOCC4)c3)[nH]c2cc1Nc1nccc(-c2cccnc2)n1 [Compound 018, [6-Methyl-2-(3-morpholin-4-ylmethyl-phenyl)-3H-benzoimidazol-5-yl]-(4-pyridin-3-yl-pyrimidin-2-yl)-amine]
1000 to 10000 nM	Cc1cc2nc(-c3cccc(N4CCN(C)CC4)c3)[nH]c2cc1Nc1nccc(-c2cccnc2)n1 [Compound 015, {6-Methyl-2-[3-(4-methyl-piperazin-1-yl)-phenyl]-3H-benzoimidazol-5-yl}-(4-pyridin-3-yl-pyrimidin-2-yl)-amine]
